Test results from patent US9809597B2, “Ganciclovir derivatives for modulating innate and adaptive immunity and for use in immunotherapy” (The Board of Trustees of the Leland Stanford Junior …, priority 2015, dated 2017).

Columns and labels:
BV-2 cells = test: RT-PCR for CXCL10 and IFNβ transcripts in BV-2 cells; format: cell-based, mouse; conditions: for induction of CXCL10 mRNA / induction of IFNβ transcript: 200 μM; for induction of IFNβ transcript: microglia (BV-2, primary); for induction of CXCL10 mRNA on neutralization of IFNβ with an antibody: 200 μM with anti-IFNβ antibody, 4 hours
Protocol: (§1) BV-2 mouse microglia cells were grown in DMEM+10% FBS and THP-1 human monocyte cells were grown in RPMI-40+10% FBS+0.05 mM β-mercaptoethanol at 37° C., 5% CO2. Adherent cells were split using 1×TrypLE (Gibco). For cellular assays, cells were treated with the following concentrations of drugs as indicated in the DMEM without serum: 100-200 μM ganciclovir, 10 ng/ml IFNγ (R&D systems), 100 ng/ml LPS (Sigma-Aldrich), 1-10 μM Fludarabine (Selleckchem), 1 μM Ruxolitinib (Selleckchem), 1 μM TG-101348 (Selleckchem), 1 μM Amlexanox (Tocris bioscience) unless otherwise noted. All experiments were run in triplicates and replicated at least 3 times with cell lines and at least twice with primary microglia. Average data are shown for cell lines and representative data are shown for primary cells. Secreted signaling proteins were measured in supernatants from cultured cells stimulated with GCV and conditioned for 24 hours in the absence of serum using two independent Luminex arrays (Human Immune Monitoring Center, Stanford and Eve technologies, Canada). Nitrite assay was performed on conditioned culture supernatants of cells stimulated with drugs for 24 hours using the Griess Reagent System (Promega) according to manufacturer's instructions. To assess cellular viability, cell confluence was measured using an automated microscope (Cellavista; Roche).
(§2) RNA was isolated from cells using RNeasy mini kit from Qiagen. DNased RNA was converted to cDNA using SuperScript III reverse transcriptase kit (Life technologies). The cDNA was used to quantify specific targets using SYBR green in Roche Lightcycler 480. ΔΔCt values normalized against the experimental control to determine fold change in mRNA for each sample compared to untreated or vehicle treated control. β-actin or Ubc or both were used as housekeeping genes. Primer sequences were obtained from PrimerBank. Fold change is shown compared to the vehicle treated or untreated cells, unless otherwise noted.

[1] = test system: THP-1 human monocyte cells; test: RT-PCR for CXCL10 in THP-1 cells; format: cell-based; conditions: 200 μM, 8-24 hours
Protocol: as §1, with “Roche). […]” for “Roche).”

BV-2 microglia = test: siRNA knockdown (STING, IRF3, Stat1, Jak2), then RT-PCR for CXCL10; format: cell-based, mouse; conditions: for CXCL10 or IFNβ mRNA expression after siRNA knockdown of Stat1 and Jak2 or lack of Stat1: BV-2 cells (siRNA) or Stat1 knockout primary microglia, 200 μM
Protocol: Smartpool siRNAs against mouse targets were bought from Dharmacon and transfected in microglia cells using Viromer Blue from Lipocalyx at a concentration of 50 nM according to manufacturer's instructions. Drugs were added cells after 24 hours of transfection and assays done 24 hours after addition of drugs.
as §2

primary microglia = test: RT-PCR for CXCL10 and IFNβ transcripts in primary microglia (wildtype, tk KO, STING^gt/gt); format: cell-based, mouse; conditions: 200 μM, 6 hours; for CXCL10 mRNA in microglia from tk1 knockout mice: adult tk1 knockout primary microglia; for induction of CXCL10 mRNA in STING^gt/gt primary microglia / induction of IFNβ mRNA in STING^gt/gt primary microglia: primary microglia lacking functional STING
Protocol: Mice were housed and bred according to the Institutional Animal Care and Use Committee guidelines. Primary microglia and astrocytes were isolated from P0-P3 C57BL/6 mouse pups. Cortices from pups were isolated, meninges removed and tissue was dissociated using a 25-gauge needle. Two cortices were plated on each poly-L-lysine coated T-75 flasks in DMEM/F12+10% FBS+1% penicillin/streptomycin. Microglia and astrocyte co-cultures were maintained for 3 weeks, after which microglia were isolated using CD11b magnetic beads (Miltenyi Biotec) according to the manufacturer's instructions. Isolated microglia were allowed to recover for 1-2 days and processed for cellular assays described above.
For tk KO experiments only, microglia were isolated from adult mouse brains using the neural dissociation kit (Miltenyi Biotec) according to manufacturer's protocol followed by CD11b magnetic bead enrichment. Isolated cells were cultured for 3-4 days before the experiment.
as §2

[2] = test system: IFNγ/LPS stimulated BV-2 microglia; test: Nitrite assay (Griess) on culture supernatants; format: cell-based, mouse; conditions: 24 hours
Protocol: as §1

[3] = test system: BV-2 and primary microglia stimulated with IFNγ and LPS; test: RT-PCR of inflammatory transcripts in IFNγ/LPS stimulated microglia; format: cell-based, mouse; conditions: IFNγ/LPS stimulated BV-2 microglia, 200 μM, 24 hours
Protocol: BV-2 mouse microglia cells were grown in DMEM+10% FBS and THP-1 human monocyte cells were grown in RPMI-40+10% FBS+0.05 mM β-mercaptoethanol at 37° C., 5% CO2. Adherent cells were split using 1×TrypLE (Gibco). For cellular assays, cells were treated with the following concentrations of drugs as indicated in the DMEM without serum: 100-200 μM ganciclovir, 10 ng/ml IFNγ (R&D systems), 100 ng/ml LPS (Sigma-Aldrich), 1-10 μM Fludarabine (Selleckchem), 1 μM Ruxolitinib (Selleckchem), 1 μM TG-101348 (Selleckchem), 1 μM Amlexanox (Tocris bioscience) unless otherwise noted. All experiments were run in triplicates and replicated at least 3 times with cell lines and at least twice with primary microglia. Average data are shown for cell lines and representative data are shown for primary cells. Secreted signaling proteins were measured in supernatants from cultured cells stimulated with GCV and conditioned for 24 hours in the absence of serum using two independent Luminex arrays (Human Immune Monitoring Center, Stanford and Eve technologies, Canada). Nitrite assay was performed on conditioned culture supernatants of cells stimulated with drugs for 24 hours using the Griess Reagent System (Promega) according to manufacturer's instructions. To assess cellular viability, cell confluence was measured using an automated microscope (Cellavista; Roche). Mice were housed and bred according to the Institutional Animal Care and Use Committee guidelines. Primary microglia and astrocytes were isolated from P0-P3 C57BL/6 mouse pups. Cortices from pups were isolated, meninges removed and tissue was dissociated using a 25-gauge needle. Two cortices were plated on each poly-L-lysine coated T-75 flasks in DMEM/F12+10% FBS+1% penicillin/streptomycin. Microglia and astrocyte co-cultures were maintained for 3 weeks, after which microglia were isolated using CD11b magnetic beads (Miltenyi Biotec) according to the manufacturer's instructions. Isolated microglia were allowed to recover for 1-2 days and processed for cellular assays described above. RNA was isolated from cells using RNeasy mini kit from Qiagen. […] was converted to cDNA using SuperScript III reverse transcriptase kit (Life technologies). The cDNA was used to quantify specific targets using SYBR green in Roche Lightcycler 480. ΔΔCt values normalized against the experimental control to determine fold change in mRNA for each sample compared to untreated or vehicle treated control. β-actin or Ubc or both were used as housekeeping genes. Primer sequences were obtained from PrimerBank. Fold change is shown compared to the vehicle treated or untreated cells, unless otherwise noted.

[4] = BV-2 microglia, siRNA 24 hours, then 200 μM for 24 hours

For `Nc1nc2c(ncn2COCCO)c(=O)[nH]1` [Acyclovir], the “induction of CXCL10 mRNA” value (BV-2 cells; BV-2 cells, 24 hours) was “failed to induce”.

For `CC(C)c1ccc2oc3nc(N)c(C(=O)O)cc3c(=O)c2c1` [Amlexanox], the “inhibition of CXCL10 mRNA induction by GCV and diGCV (Tbk1 inhibition)” value (BV-2 cells; BV-2 cells, 1 μM Amlexanox with 200 μM GCV or diGCV, 24 hours) was “inhibited”.

In the case of `Nc1ccn(C[C@@H](CO)OCP(=O)(O)O)c(=O)n1` [Cidofovir], the “induction of CXCL10 mRNA” value (BV-2 cells; BV-2 cells, 24 hours) is reported as “failed to induce”.

With `Cc1ccc2c(=O)c3cccc(CC(=O)O)c3oc2c1C` [DMXAA] the “induction of CXCL10 mRNA” value (BV-2 cells; BV-2 cells, 24 hours) was “strongly induced”, the “induction of IFNβ transcript” value (BV-2 cells) was “strongly induced” and the “induction of CXCL10 mRNA in human monocyte cell line” value [1] was “did not”.

In the case of `O=C(O)P(=O)(O)O` [Foscarnet], the “induction of CXCL10 mRNA” value (BV-2 cells; BV-2 cells, 24 hours) is reported as “failed to induce”.

`Nc1nc2c(ncn2CCC(CO)CO)c(=O)[nH]1` [Penciclovir] was tested, and the “induction of CXCL10 mRNA” value (BV-2 cells; BV-2 cells, 24 hours) was “failed to induce”.

`NC(=O)c1ncn([C@@H]2O[C@H](CO)[C@@H](O)[C@H]2O)n1` [Ribavirin] was tested, and the “induction of CXCL10 mRNA” value (BV-2 cells; BV-2 cells, 24 hours) was “failed to induce”.

In the case of `Cc1cnc(Nc2ccc(OCCN3CCCC3)cc2)nc1Nc1cccc(S(=O)(=O)NC(C)(C)C)c1` [TG101348], the “inhibition of CXCL10 production in response to GCV and diGCV” value (BV-2 cells; BV-2 cells, 24 hours, 10 μM Fludarabine or 1 μM Jak inhibitor with 200 μM GCV or diGCV) is reported as “strongly inhibited” and the “inhibition of CXCL10 production in response to cGAMP” value (BV-2 cells; BV-2 cells, 24 hours, 10 μM Fludarabine or 1 μM Jak inhibitor with 200 μM cGAMP) is reported as “somewhat less pronounced”.

`Nc1ncnc2c1ncn2[C@@H]1O[C@H](CO)[C@@H](O)[C@@H]1O` [Vidarabine] was tested, and the “induction of CXCL10 mRNA” value (BV-2 cells; BV-2 cells, 24 hours) was “failed to induce”.

With `Nc1nc2c(ncn2[C@@H]2O[C@@H]3COP(=O)(O)O[C@H]4[C@@H](O)[C@H](n5cnc6c(=O)[nH]c(N)nc65)O[C@@H]4COP(=O)(O)O[C@H]3[C@H]2O)c(=O)[nH]1` [c-diGMP] the “induction of CXCL10 mRNA” value (BV-2 cells; BV-2 cells, 24 hours) was “strongly induced” and the “induction of IFNβ transcript” value (BV-2 cells) was “strongly induced”.

For `Nc1nc2c(ncn2[C@@H]2O[C@@H]3COP(=O)(O)O[C@H]4[C@@H](O)[C@H](n5cnc6c(N)ncnc65)O[C@@H]4COP(=O)(O)O[C@@H]2[C@@H]3O)c(=O)[nH]1` [cGAMP, cyclic-GAMP], the “CXCL10 or IFNβ mRNA expression after siRNA knockdown of Stat1 and Jak2 or lack of Stat1” value (“CXCL10 or IFNβ mRNA expression” below) (BV-2 microglia) was “significantly reduced”, the “induction of CXCL10 mRNA on neutralization of IFNβ with an antibody” value (“induction of CXCL10 mRNA … with an antibody” below) (BV-2 cells; BV-2 cells) was “partly reduced” and the “induction of CXCL10 mRNA” value (BV-2 cells; BV-2 cells, 24 hours) was “strongly induced”. For the same compound, the “induction of IFNβ transcript” value (BV-2 cells) was “strongly induced”.

`NC1=Nc2c(ncn2COC(CO)CO)C(OCCOCCOCCOCCOc2nc(N)nc3c2ncn3COC(CO)CO)N1` (centres unmarked) [diGCV, 2-({2-Amino-6-[2-(2-{2-[2-(2-amino-9-{[2-hydroxy-1-(hydroxymethyl)ethoxy]methyl}-9H-purin-6-yloxy)ethoxy]ethoxy}ethoxy)ethoxy]-6,9-dihydro-1H-purin-9-yl}methoxy)-1,3-propanediol] was tested, and the “CXCL10 mRNA in microglia from tk1 knockout mice” value (primary microglia) was “triggered CXCL10 independent of endogenous tk1”, the “induction of CXCL10 mRNA in STING^gt/gt primary microglia” value (primary microglia) was “failed to induce” and the “induction of IFNβ mRNA in STING^gt/gt primary microglia” value (primary microglia) was “failed to induce”. The “microglial nitric oxide production (nitrite assay)” value [2] was “potently reduced”, the “CXCL10 or IFNβ mRNA expression” value (BV-2 microglia) was “significantly reduced” and the “capacity to induce CXCL10 after siRNA knock down of STING” value (BV-2 microglia; [4]) was “largely abrogated”. The “potential to induce CXCL10 mRNA after siRNA knockdown of IRF3” value (BV-2 microglia; [4]) was “inhibited”, the “induction of CXCL10 mRNA … with an antibody” value (BV-2 cells; BV-2 cells) was “partly reduced” and the “induction of CXCL10 mRNA” value (BV-2 cells; BV-2 cells, 24 hours) was “increased potency”. For the same compound, the “inflammatory markers (transcripts)” value [3] was “potently reduced”.

`Nc1nc2nc[nH]c2c(=O)[nH]1` [guanine] was tested, and the “induction of CXCL10 mRNA” value (BV-2 cells; BV-2 cells, 24 hours) was “failed to induce”.

With `Nc1nc2c(ncn2[C@@H]2O[C@H](CO)[C@@H](O)[C@H]2O)c(=O)[nH]1` [guanosine] the “induction of CXCL10 mRNA” value (BV-2 cells; BV-2 cells, 24 hours) was “failed to induce”.

For `NC1=Nc2c(ncn2COC(CO)CO)C(OCCOCCOCCOCCO)N1` (centres unmarked) [monoGCV, 2-{[2-Amino-6-(2-{2-[2-(2-hydroxyethoxy)ethoxy]ethoxy}ethoxy)-6,9-dihydro-1H-purin-9-yl]methoxy}-1,3-propanediol], the “CXCL10 mRNA in microglia from tk1 knockout mice” value (primary microglia) was “triggered CXCL10 independent of endogenous tk1”, the “induction of CXCL10 mRNA in STING^gt/gt primary microglia” value (primary microglia) was “failed to induce” and the “induction of IFNβ mRNA in STING^gt/gt primary microglia” value (primary microglia) was “failed to induce”. For the same compound, the “microglial nitric oxide production (nitrite assay)” value [2] was “potently reduced”, the “CXCL10 or IFNβ mRNA expression” value (BV-2 microglia) was “significantly reduced” and the “induction of CXCL10 mRNA … with an antibody” value (BV-2 cells; BV-2 cells) was “partly reduced”. The “inflammatory markers (transcripts)” value [3] was “potently reduced”.

In the case of `NC1=Nc2c(ncn2COC(CO)CO)C(OCCCSSCCCOC2NC(N)=Nc3c2ncn3COC(CO)CO)N1` (centres unmarked) [thiol-GCV, 2-[(2-Amino-6-{3-[3-(2-amino-9-{[2-hydroxy-1-(hydroxymethyl)ethoxy]methyl}-6,9-dihydro-1H-purin-6-yloxy)propyldithio]propoxy}-6,9-dihydro-1H-purin-9-yl)methoxy]-1,3-propanediol], the “induction of CXCL10 mRNA” value (BV-2 cells; BV-2 cells, 24 hours) is reported as “increased potency”.
